Reference: patent US11207320B2, “Compositions and methods for cancer expressing PDE3A or SLFN12” (The Broad Institute, Inc., priority 2015, dated 2021)

Tested on: 766 cancer cell lines
Experiment: Large-scale cell-line viability measurements (766 cancer cell lines, 72 h, AUC)
Format: cell-based, human
Method: Cell lines were treated for 72 hours with concentrations ranging from 66.4 μM-2 nM in 2-fold step dilutions.
To characterize cellular sensitivity to DNMDP further, 766 genomically characterized cancer cell lines were screened for DMNDP sensitivity at concentrations ranging from 66.4 μM to 2 nM in 2-fold dilution steps for 72 hours. From these cell lines, 22 cell lines were categorized as sensitive with a robust Z-score lower than −4, which represented multiple lineages including multiple melanoma cell lines, amongst others (Table 1).
The sensitivity of […] cancer cell lines (CCLs) was measured drawn from 23 different lineages to DNMDP. Each cell line was plated in its preferred media in white opaque 1536-plates at a density of 500 cells/well. After incubating overnight, DNMDP was added by acoustic transfer at 16 concentrations ranging from 66.4 μM-2 nM in 2-fold steps in duplicate (Labcyte Echo 555, Labcyte Inc., Sunnyvale, Calif.). After 72 hours treatment, cellular ATP levels were measured as a surrogate for viability (CELLTITERGLO®, Promega Corporation, Madison, Wis.) according to manufacturer's protocols using a ViewLux Microplate Imager (PerkinElmer, Waltham, Mass.) and normalized to background (media-only) and vehicle (DMSO)-treated control wells.
Concentration response curves were fit using nonlinear fits to 2- or 3-parameter sigmoid functions through all 16 concentrations with the low-concentration asymptote set to the DMSO-normalized value, and an optimal 8-point dose curve spanning the range of compound-sensitivity was identified. The area under the 8-point dose curve (AUC) was computed by numeric integration as a metric for sensitivity for further analysis. Similar sensitivity measurements have been obtained for a collection of 480 other compounds, enabling analyses that identify cell lines responding uniquely to DNMDP (see Broad Institute Cancer Therapeutics Response Portal, a dataset to identify comprehensively relationships between genetic and lineage features of human cancer cell lines and small-molecule sensitivities for complete list of compounds).

[1] = ALLSIL (HAEMATOPOIETIC AND LYMPHOID TISSUE), 72 hours
[2] = BICR6 (UPPER AERODIGESTIVE TRACT), 72 hours
[3] = DKMG (CENTRAL NERVOUS SYSTEM), 72 hours
[4] = DND41 (HAEMATOPOIETIC AND LYMPHOID TISSUE), 72 hours
[5] = EJM (HAEMATOPOIETIC AND LYMPHOID TISSUE), 72 hours
[6] = GB1 (CENTRAL NERVOUS SYSTEM), 72 hours
[7] = GOS3 (CENTRAL NERVOUS SYSTEM), 72 hours
[8] = GRANTA519 (HAEMATOPOIETIC AND LYMPHOID TISSUE), 72 hours
[9] = HEL9217 (HAEMATOPOIETIC AND LYMPHOID TISSUE), 72 hours
[10] = HUT78 (HAEMATOPOIETIC AND LYMPHOID TISSUE), 72 hours
[11] = KCL22 (HAEMATOPOIETIC AND LYMPHOID TISSUE), 72 hours
[12] = KMM1 (HAEMATOPOIETIC AND LYMPHOID TISSUE), 72 hours
[13] = KMS11 (HAEMATOPOIETIC AND LYMPHOID TISSUE), 72 hours
[14] = KMS12BM (HAEMATOPOIETIC AND LYMPHOID TISSUE), 72 hours
[15] = KMS20 (HAEMATOPOIETIC AND LYMPHOID TISSUE), 72 hours
[16] = KMS28BM (HAEMATOPOIETIC AND LYMPHOID TISSUE), 72 hours
[17] = KMS34 (HAEMATOPOIETIC AND LYMPHOID TISSUE), 72 hours
[18] = KO52 (HAEMATOPOIETIC AND LYMPHOID TISSUE), 72 hours
[19] = L540 (HAEMATOPOIETIC AND LYMPHOID TISSUE), 72 hours
[20] = L1236 (HAEMATOPOIETIC AND LYMPHOID TISSUE), 72 hours
[21] = LAMA84 (HAEMATOPOIETIC AND LYMPHOID TISSUE), 72 hours
[22] = LNCAPCLONEFGC (PROSTATE), 72 hours
[23] = LP1 (HAEMATOPOIETIC AND LYMPHOID TISSUE), 72 hours

## CCN(CC)c1ccc(C2=NNC(=O)CC2C)cc1[N+](=O)[O-] (centres unmarked) [DNMDP, 6-(4-(diethylamino)-3-nitrophenyl)-5-methyl-4,5-dihydropyridazin-3(2H)-one]
766 cell lines, 66.4 μM to 2 nM, 72 hours
  number of cell lines categorized as sensitive (robust Z-score lower than −4): 22 cell lines
766 genomically-characterized cancer cell lines
  share of cell lines with nanomolar efficacy: about 3%
A549 (LUNG), 72 hours
  DNMDP AUC: 5.9509
  Robust Z-score: −0.7177
[1]
  DNMDP AUC: 5.8724
  Robust Z-score: −0.8001
[2]
  DNMDP AUC: 5.8837
  Robust Z-score: −0.7882
BT549 (BREAST), 72 hours
  DNMDP AUC: 5.9226
  Robust Z-score: −0.7474
C32 (SKIN), 72 hours
  DNMDP AUC: 6.1786
  Robust Z-score: −0.4787
CAL54 (KIDNEY), 72 hours
  DNMDP AUC: 6.1949
  Robust Z-score: −0.4616
COLO668 (LUNG), 72 hours
  DNMDP AUC: 5.9969
  Robust Z-score: −0.6694
COLO679 (SKIN), 72 hours
  DNMDP AUC: 5.9634
  Robust Z-score: −0.7046
COLO800 (SKIN), 72 hours
  DNMDP AUC: 6.1272
  Robust Z-score: −0.5326
CORL51 (LUNG), 72 hours
  DNMDP AUC: 0.5944
  Robust Z-score: −6.34
COV362 (OVARY), 72 hours
  DNMDP AUC: 5.6913
  Robust Z-score: −0.9902
[3]
  DNMDP AUC: 1.7217
  Robust Z-score: −5.157
DMS53 (LUNG), 72 hours
  DNMDP AUC: 6.2061
  Robust Z-score: −0.4498
[4]
  DNMDP AUC: 6.1979
  Robust Z-score: −0.4584
DU145 (PROSTATE), 72 hours
  DNMDP AUC: 5.7825
  Robust Z-score: −0.8945
DV90 (LUNG), 72 hours
  DNMDP AUC: 6.1676
  Robust Z-score: −0.4902
ECGI10 (OESOPHAGUS), 72 hours
  DNMDP AUC: 6.2151
  Robust Z-score: −0.4404
[5]
  DNMDP AUC: 6.1782
  Robust Z-score: −0.4791
EPLC272H (LUNG), 72 hours
  DNMDP AUC: 6.0469
  Robust Z-score: −0.6169
G402 (SOFT TISSUE), 72 hours
  DNMDP AUC: 6.0606
  Robust Z-score: −0.6026
[6]
  DNMDP AUC: 1.8269
  Robust Z-score: −5.046
[7]
  DNMDP AUC: 6.2076
  Robust Z-score: −0.4483
[8]
  DNMDP AUC: 5.8937
  Robust Z-score: −0.7777
GSU (STOMACH), 72 hours
  DNMDP AUC: 6.1172
  Robust Z-score: −0.5431
HCC1395 (BREAST), 72 hours
  DNMDP AUC: 5.9716
  Robust Z-score: −0.696
HCC1419 (BREAST), 72 hours
  DNMDP AUC: 5.7835
  Robust Z-score: −0.8934
HCC1428 (BREAST), 72 hours
  DNMDP AUC: 5.9402
  Robust Z-score: −0.7289
HCC1500 (BREAST), 72 hours
  DNMDP AUC: 5.9451
  Robust Z-score: −0.7238
[9]
  DNMDP AUC: 0.75
  Robust Z-score: −6.177
HS888T (BONE), 72 hours
  DNMDP AUC: 5.8353
  Robust Z-score: −0.839
[10]
  DNMDP AUC: 1.5307
  Robust Z-score: −5.357
IALM (LUNG), 72 hours
  DNMDP AUC: 5.775
  Robust Z-score: −0.9023
JHH4 (LIVER), 72 hours
  DNMDP AUC: 5.71
  Robust Z-score: −0.9706
[11]
  DNMDP AUC: 5.9598
  Robust Z-score: −0.7084
[12]
  DNMDP AUC: 6.1723
  Robust Z-score: −0.4853
[13]
  DNMDP AUC: 6.2008
  Robust Z-score: −0.4554
[14]
  DNMDP AUC: 6.0135
  Robust Z-score: −0.652
[15]
  DNMDP AUC: 6.0542
  Robust Z-score: −0.6093
[16]
  DNMDP AUC: 5.9369
  Robust Z-score: −0.7324
[17]
  DNMDP AUC: 5.8799
  Robust Z-score: −0.7922
[18]
  DNMDP AUC: 6.2174
  Robust Z-score: −0.438
KYSE410 (OESOPHAGUS), 72 hours
  DNMDP AUC: 6.0741
  Robust Z-score: −0.5884
[19]
  DNMDP AUC: 6.0807
  Robust Z-score: −0.5815
[20]
  DNMDP AUC: 6.0853
  Robust Z-score: −0.5766
[21]
  DNMDP AUC: 5.8201
  Robust Z-score: −0.855
LMSU (STOMACH), 72 hours
  DNMDP AUC: 6.0528
  Robust Z-score: −0.6107
[22]
  DNMDP AUC: 5.7557
  Robust Z-score: −0.9226
LOUNH91 (LUNG), 72 hours
  DNMDP AUC: 5.9793
  Robust Z-score: −0.6879
[23]
  DNMDP AUC: 6.1029
  Robust Z-score: −0.5582
LU99 (LUNG), 72 hours
  DNMDP AUC: 5.8016
